In ChEMBL document CHEMBL1201862, “PubChem BioAssay data set” (2004):
One block for each compound: values may come before it. The source made the active and inactive calls.

What was measured:
[1] = viability loss in THP-1 monocytes – THP-1 cells, cytotoxicity control for Vif-APOBEC3G degradation inhibitor project, dose response (AID 1117359); assay type: functional; settings: THP-1
[2] = HIV-1 Vif–A3G interaction blockers – biochemical, TR-FRET, GST-Vif 1-94, biotin-A3G peptide, dose response retest, primary screen (AID 1117319); assay type: functional;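 further: TR-FRET signal of purified GST-Vif binding a biotinylated A3G peptide; inhibitors lower the FRET signal by blocking Vif and A3G binding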
[3] = HIV-1 AD8 envelope cell-cell fusion blockers – cherry-pick, dose response (AID 652062); assay type: functional, cell-based;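 further: luciferase signal from cell-cell fusion driven by HIV-1 clade B AD8 Env; potency is for inhibitors of fusion seen as a drop in luminescence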
[4] = blockers of HIV-1 ZM109 envelope-driven cell-cell fusion – HeLa effector, CEM target cells, luciferase, cherry-pick, dose response (AID 652058); assay type: functional, cell-based;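 further: luciferase signal from HIV-1 Env mediated cell-cell fusion of effector and target cells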
[5] = off-target signal loss in HeLa-CEM21 co-culture – HeLa F-luc CTL cells, cherry-picked, counter-screen for HIV-1 Env fusion inhibitor project, dose response (AID 652040); assay type: functional, cell-based;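 further: potency for signal decrease marking cytotoxic or nonspecific inhibition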
[6] = blockers of HIV-1 envelope-mediated cell-cell fusion – cherry-pick, dose response (AID 652057); assay type: functional, cell-based
[7] = molecular target: T1, Mannose-6-phosphate isomerase (Homo sapiens, UniProt P34949); assay: MPI inhibition at elevated mannose 6-phosphate – biochemical, fluorescence intensity, high mannose 6-phosphate, primary screen (AID 1220)
T1 sequence (P34949 whole entry): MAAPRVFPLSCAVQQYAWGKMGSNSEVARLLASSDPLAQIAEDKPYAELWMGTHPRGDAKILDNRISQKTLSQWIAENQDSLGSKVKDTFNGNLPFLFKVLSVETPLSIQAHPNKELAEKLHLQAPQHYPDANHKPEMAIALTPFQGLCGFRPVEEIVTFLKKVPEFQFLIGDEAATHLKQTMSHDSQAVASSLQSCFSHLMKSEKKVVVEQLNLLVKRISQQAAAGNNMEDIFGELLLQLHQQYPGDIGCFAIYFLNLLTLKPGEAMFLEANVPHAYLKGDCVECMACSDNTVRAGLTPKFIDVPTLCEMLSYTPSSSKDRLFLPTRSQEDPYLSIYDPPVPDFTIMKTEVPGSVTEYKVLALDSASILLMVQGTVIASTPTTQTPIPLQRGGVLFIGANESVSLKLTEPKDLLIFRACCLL

Bcl-2-related protein A1 [8] = molecular target: T2, Bcl-2-related protein A1 (Mus musculus, UniProt Q07440); assay: Bfl-1 binding inhibitors, SAR follow-up, biochemical, fluorescence polarization (AID 1070)
T2 sequence (Q07440 whole entry): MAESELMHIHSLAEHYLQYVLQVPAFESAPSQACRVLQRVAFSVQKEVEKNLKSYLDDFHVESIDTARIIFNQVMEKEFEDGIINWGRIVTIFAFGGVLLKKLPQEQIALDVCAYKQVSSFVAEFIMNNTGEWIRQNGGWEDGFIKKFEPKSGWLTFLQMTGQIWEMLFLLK

Bcl-2-related protein A1 [9] = molecular target: T2, Bcl-2-related protein A1; assay: small-molecule antagonists of Bfl-1/BH3 interaction – biochemical, TR-FRET, mouse Bfl-1, confirmation (AID 621);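 further: TR-FRET binding of GST-Bfl-1 to FITC-labelled Bid peptide via terbium antibody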
[10] = molecular target: Glyceraldehyde-3-phosphate dehydrogenase (Homo sapiens, UniProt P04406)
Glyceraldehyde-3-phosphate dehydrogenase, sequence (P04406 whole entry): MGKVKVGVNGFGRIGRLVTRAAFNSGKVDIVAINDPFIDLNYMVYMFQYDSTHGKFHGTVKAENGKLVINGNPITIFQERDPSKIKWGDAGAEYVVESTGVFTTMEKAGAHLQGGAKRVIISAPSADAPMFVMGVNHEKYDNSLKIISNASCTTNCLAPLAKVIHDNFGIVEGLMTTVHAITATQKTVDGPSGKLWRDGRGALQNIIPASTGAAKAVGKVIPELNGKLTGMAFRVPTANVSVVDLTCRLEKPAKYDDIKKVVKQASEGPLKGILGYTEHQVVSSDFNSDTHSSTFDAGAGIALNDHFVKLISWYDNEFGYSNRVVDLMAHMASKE

[11] = P. falciparum Dd2 growth inhibitors, dose response, SYBR Green, cherry-picked samples (AID 1159567); assay type: functional, cell-based

SMILES: CN(C)CCn1c(=O)n(-c2cccc(Cl)c2)c(=O)c2c3c(sc21)CCCCC3
- AC50 [3]: 4.37 µM (active)
- AC50 [4]: 0.997 µM (active)
- AC50 [5]: 1.96 µM (active)
- AC50 [6]: 786 nM (active)

SMILES: COCCn1c(-c2ccccc2Cl)nc2c(c(=O)c3ccccc3n2C)c1=O
- IC50 (cells): 14.6 µM (active)

SMILES: COC(=O)[C@]1(C)N[C@H](CN(C)S(=O)(=O)c2ccc(-c3ccccc3)cc2)[C@@H]2C(=O)N(Cc3ccccc3)C(=O)[C@@H]21
- AC50 [3]: 11.7 µM (active)
- AC50 [4]: 9.4 µM (active)
- AC50 [5]: 5.77 µM (active)
- AC50 [6]: 3700 nM (active)

SMILES: CC(C)n1/c(=N/C(=O)c2ccco2)c(C#N)cc2c(=O)n3ccccc3cc21
- IC50 [2]: > 100 µM (active)

SMILES: CCS(=O)(=O)N1[C@H](CO)[C@H](c2ccc(C#Cc3ccccc3F)cc2)[C@@H]1C#N
- AC50 [11]: 4.23 µM (active)

The next lines start with results.

- IC50 [2]: > 100 µM (active)
SMILES: COc1ccc(C(=O)Cn2c(=N)n(C)c3ccccc32)cc1
- CC50 [1]: > 40 µM (active)

- IC50 [7]: > 50 µM (not active)
SMILES: Cc1cccc(Oc2c([N+](=O)[O-])c(=O)n(C)c3ccccc23)c1

- IC50 (Bcl-2-related protein A1 [8]): > 100 µM (not active)
- IC50 (Bcl-2-related protein A1 [9]): > 100 µM (not active)
- IC50 [10]: > 100 µM (not active)
SMILES: O=C1C(Cl)=C(Nc2ccccc2)C(=O)N1c1ccc(Cl)c(Cl)c1
